Drawing on patent US8916183B2, “Pesticidal compositions and processes related thereto” (priority 2012, dated 2014), this text covers mortality for 15 compounds.

Holding throughout (assay type): in vivo
Assay [1] concerns Beet Armyworm (BAW) (Spodoptera exigua). Description: Bioassay on beet armyworm (BAW), 128-well diet tray assay. As to conditions: Spodoptera exigua, read-out: % Mortality BAW 50 μg/cm^2.
Assay [2] has as its system Green Peach Aphid (GPA) (Myzus persicae). Description: Bioassay on green peach aphid (GPA), foliar spray on cabbage seedlings. The conditions noted are these: read-out: % Mortality GPA 200 ppm. Here is the method: Certain molecules disclosed in this document were tested against GPA using procedures described in the following example. In the reporting of the results, the “GPA Rating Table” was used (See Table Section).
Cabbage seedlings grown in 3-inch pots, with 2-3 small (3-5 cm) true leaves, were used as test substrate. The seedlings were infested with 20-50 GPA (wingless adult and nymph stages) one day prior to chemical application. Four pots with individual seedlings were used for each treatment. Test compounds (2 mg) were dissolved in 2 mL of acetone/methanol (1:1) solvent, forming stock solutions of 1000 ppm test compound. […] A hand-held aspirator-type sprayer was used for spraying a solution to both sides of […] leaves until runoff. Reference plants (solvent check) were sprayed with the diluent only containing 20% by volume of acetone/methanol (1:1) solvent. Treated plants were held in a holding room for three days at approximately 25° C. and ambient relative humidity (RH) prior to grading. Evaluation was conducted by counting the number of live aphids per plant under a microscope. […] Corrected % Control=100*(X−Y)/X • where • X=No. of live aphids on solvent check plants and • Y=No. of live aphids on treated plants
The results are indicated in the table entitled “Table 5: Biological Results” (See Table Section).

Assay [3] deals with Corn Earworm (CEW) (Helicoverpa zea). Put plainly: Bioassay on corn earworm (CEW), 128-well diet tray assay. The conditions noted are these: Helicoverpa zea, read-out: % Mortality CEW 50 μg/cm^2. Summed up:
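Larvae in a 128-well diet tray were held at 25° C under 14:10 light-dark for five to seven days. Percent mortality was scored per well and averaged over eight wells, then reported on a rating scale.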

Read-outs that look alike come from different tables or passages of the source.

Consider `Cc1cccc(C)c1/N=C(/N/N=C/c1ccc(-c2ncn(-c3ccc(OC(F)(F)F)cc3)n2)cc1)SCc1cc2c(C(F)(F)F)nn(C)c2s1` [Compound 19C], for which the mortality at 50 µg/cm2 in assay [1] (beet armyworm, 50 μg/cm^2) lay in the range of 50 to 100%; in assay [3] (corn earworm, 50 μg/cm^2) it was 50 to 100%. Besides, in assay [2] (green peach aphid, 200 ppm), the mortality at 200 ppm fell in the range of 0 to 80%.

As for `Cc1cccc(C)c1/N=C(/N/N=C/c1ccc(-c2ncn(-c3ccc(OC(F)(F)F)cc3)n2)cc1)SCc1c(-c2ccccc2)noc1C` [Compound 20C], the mortality at 50 µg/cm2 fell in the range of 50 to 100% in assay [1] (beet armyworm, 50 μg/cm^2) and 50 to 100% in assay [3] (corn earworm, 50 μg/cm^2). Moreover, the mortality at 200 ppm in assay [2] (green peach aphid, 200 ppm) is 0%.

Turning to `CCOCC(=O)OCS/C(=N\c1c(C)cccc1C)N/N=C/c1ccc(-c2ncn(-c3ccc(OC(F)(F)F)cc3)n2)cc1` [Compound 22C], the mortality at 50 µg/cm2 was 50 to 100% in assay [1] (beet armyworm, 50 μg/cm^2) and 50 to 100% in assay [3] (corn earworm, 50 μg/cm^2). Besides, the mortality at 200 ppm in assay [2] (green peach aphid, 200 ppm) is 0 to 80%.

Take `Cc1cccc(C)c1/N=C(/N/N=C/c1ccc(-c2ncn(-c3ccc(OC(F)(F)F)cc3)n2)cc1)SCOC(=O)CNC(=O)OCc1ccccc1` [Compound 23C]: the mortality at 50 µg/cm2 in assay [1] and in assay [3] was 50 to 100% each time. Also, the mortality at 200 ppm in assay [2] worked out at 0%.

For `Cc1cccc(C)c1/N=C(/N/N=C/c1ccc(-c2ncn(-c3ccc(OC(F)(F)F)cc3)n2)cc1)SCOC(=O)OC(C)C` [Compound 24C], the mortality at 50 µg/cm2 in assay [1] (beet armyworm, 50 μg/cm^2) is 50 to 100%; in assay [3] (corn earworm, 50 μg/cm^2) it was 50 to 100%. Moreover, the mortality at 200 ppm in assay [2] (green peach aphid, 200 ppm) was in the range of 0 to 80%.

Take `Cc1cccc(C)c1/N=C(/N/N=C/c1ccc(-c2ncn(-c3ccc(OC(F)(F)F)cc3)n2)cc1)SCOC(=O)C(C)C` [Compound 25C]: the mortality at 50 µg/cm2 was in the range of 50 to 100% in assay [1] (beet armyworm, 50 μg/cm^2) and 50 to 100% in assay [3] (corn earworm, 50 μg/cm^2). The mortality at 200 ppm in assay [2] (green peach aphid, 200 ppm) amounted to 0%.

Turning to `COc1cc(C)c(/N=C(/N/N=C/c2ccc(-c3ncn(-c4ccc(OC(F)(F)F)cc4)n3)cc2)SCOC(=O)C(C)C)c(C)c1` [Compound 27C], the mortality at 50 µg/cm2 in assay [1] (beet armyworm, 50 μg/cm^2) was 50 to 100%; in assay [3] (corn earworm, 50 μg/cm^2), 50 to 100%. Also, in assay [2] (green peach aphid, 200 ppm), the mortality at 200 ppm lay in the range of 0 to 80%.

As to `COc1cc(C)c(/N=C(/N/N=C/c2ccc(-c3ncn(-c4ccc(OC(F)(F)F)cc4)n3)cc2)SCOC(=O)CNC(=O)OCc2ccccc2)c(C)c1` [Compound 28C], the mortality at 50 µg/cm2 in assay [1] and in assay [3] was 50 to 100% in each case. For the same compound, the mortality at 200 ppm in assay [2] is 0 to 80%.

As for `CCOCC(=O)OCS/C(=N\c1c(C)cc(OC)cc1C)N/N=C/c1ccc(-c2ncn(-c3ccc(OC(F)(F)F)cc3)n2)cc1` [Compound 29C], the mortality at 50 µg/cm2 fell in the range of 50 to 100% in assay [1] (beet armyworm, 50 μg/cm^2) and 50 to 100% in assay [3] (corn earworm, 50 μg/cm^2). Further, the mortality at 200 ppm in assay [2] (green peach aphid, 200 ppm) lay in the range of 0 to 80%.

`Cc1cccc(C)c1/N=C(/N/N=C/c1ccc(-c2ncn(-c3ccc(OC(F)(F)F)cc3)n2)cc1)SCOC(=O)CNC(=O)OC(C)(C)C` [Compound 30C]: the mortality at 50 µg/cm2 lay in the range of 50 to 100% in assay [1] (beet armyworm, 50 μg/cm^2) and 50 to 100% in assay [3] (corn earworm, 50 μg/cm^2). Moreover, the mortality at 200 ppm in assay [2] (green peach aphid, 200 ppm) is 0 to 80%.

For `CC(=O)OCS/C(=N\c1c(C)cccc1C)N/N=C/c1ccc(-c2ncn(-c3ccc(OC(F)(F)F)cc3)n2)cc1` [Compound 31C], the mortality at 50 µg/cm2 was 50 to 100% in assay [1] (beet armyworm, 50 μg/cm^2) and 50 to 100% in assay [3] (corn earworm, 50 μg/cm^2). Moreover, in assay [2] (green peach aphid, 200 ppm), the mortality at 200 ppm lay within 0 to 80%.

As to `COc1cc(Cl)c(/N=C(/N/N=C/c2ccc(-c3ncn(-c4ccc(OC(F)(F)F)cc4)n3)cc2)SCOC(=O)OC(C)C)c(Cl)c1` [Compound 33C], the mortality at 50 µg/cm2 lay in the range of 50 to 100% in assay [1] (beet armyworm, 50 μg/cm^2) and 50 to 100% in assay [3] (corn earworm, 50 μg/cm^2). Further, the mortality at 200 ppm in assay [2] (green peach aphid, 200 ppm) was in the range of 0 to 80%.

As for `Cc1cccc(C)c1/N=C(/N/N=C/c1ccc(-c2ncn(-c3ccc(OC(F)(F)F)cc3)n2)cc1)SCOC(=O)C1CCCC1` [Compound 35C], the mortality at 50 µg/cm2 in assay [1] (beet armyworm, 50 μg/cm^2) fell in the range of 50 to 100%; in assay [3] (corn earworm, 50 μg/cm^2), 50 to 100%. In assay [2] (green peach aphid, 200 ppm), the mortality at 200 ppm fell in the range of 0 to 80%.

Consider `Cc1cccc(C)c1/N=C(/N/N=C/c1ccc(-c2ncn(-c3ccc(OC(F)(F)F)cc3)n2)cc1)SCOC(=O)C(C)(C)C` [Compound 36C], for which the mortality at 50 µg/cm2 in assay [1] (beet armyworm, 50 μg/cm^2) fell in the range of 50 to 100%; in assay [3] (corn earworm, 50 μg/cm^2), 50 to 100%. The mortality at 200 ppm in assay [2] (green peach aphid, 200 ppm) turned out to be 0%.

Take `COc1cc(C)c(/N=C(/N/N=C/c2ccc(-c3ncn(-c4ccc(OC(F)(F)C(F)(F)F)cc4)n3)cc2)SCOC(=O)C(C)C)c(C)c1` [Compound 37C]: the mortality at 50 µg/cm2 in assay [1] (beet armyworm, 50 μg/cm^2) was 50 to 100%; in assay [3] (corn earworm, 50 μg/cm^2) it was 50 to 100%. Also, the mortality at 200 ppm in assay [2] (green peach aphid, 200 ppm) worked out at 0%.
